From US10253039B2, “Inhibitors of bacterial DNA gyrase with efficacy against gram-negative bacteria” (priority 2014, dated 2019) come the findings set out here.

In general, MIC refers to the smallest concentration in the dilution series that meets the test's criterion for growth inhibition.

Converted amounts (≈) assume the structure as drawn. Where only a bound is given, the exact number is not on record here.

Holding throughout (type): cell-based
For one assay, the system named is E. coli BW25113. Nature of the assay: MIC, microdilution in 96-well plates. Particulars: Escherichia coli, BW25113, B: E. coli BW25113; read-out: MIC. An outline of the steps:
(§1)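 Using LB medium and a 1:10000 starting inoculum, compounds were diluted stepwise by half in triplicate, DMSO serving as vehicle control. Shaking incubation ran 16-18 hours at 37° C. before wells were visually checked for turbidity to assign MIC.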
(In general: Dilution methods test growth across graded concentrations, often in twofold steps.)

The next assay deals with Edwardsiella tarda. Nature of the assay: MIC, microdilution in 96-well plates. Particulars: D: Edwardsiella tarda. Put shortly:
as §1

The next assay has as its system E. coli JW5503 (deltolC). Nature of the assay: MIC, 20-strain panel. As to conditions: Escherichia coli, C: E. coli JW5503 (deltolC). Put shortly:
as §1

The subject of a further assay is E. coli MG1655. Nature of the assay: MIC, 20-strain panel. Particulars: Escherichia coli, MG1655, A: E. coli MG1655; read-out: MIC. An outline of the steps:
as §1

The test system of assay [1] is Klebsiella pneumoniae subsp. pneumoniae. Nature of the assay: MIC, 20-strain panel. As to conditions: E: Klebsiella pneumoniae subsp. pneumoniae. An outline of the steps: as §1
In assay [2] the test system is Salmonella enterica subsp. enterica typhimurium. Nature of the assay: MIC, 20-strain panel. Particulars: F: Salmonella enterica subsp. enterica Typhimurium. An outline of the steps:
as §1

The test system of the next assay is Shigella flexneri. Nature of the assay: MIC, 20-strain panel. Particulars: G: Shigella flexneri. Put shortly:
as §1

Assay [3] deals with Staphylococcus aureus subsp. aureus. Nature of the assay: MIC, 20-strain panel. As to conditions: H: Staphylococcus aureus subsp. aureus, read-out: MIC. Put shortly:
as §1

In assay [4] the test system is Staphylococcus epidermidis. Nature of the assay: MIC, 20-strain panel. Put shortly: as §1
The test system of assay [5] is Staphylococcus saprophyticus subsp. saprophyticus. Nature of the assay: MIC, 20-strain panel. An outline of the steps: as §1
A further assay concerns Streptococcus agalactiae. Nature of the assay: MIC, 20-strain panel. An outline of the steps:
as §1

The next assay concerns Streptococcus pyogenes. Nature of the assay: MIC, 20-strain panel. Put shortly:
as §1

Turning to `N#Cc1cccc(S(=O)(=O)N[C@@H]2CCN(Cc3ccc(-c4ccc(Cl)cc4)cc3)C2)c1` [Compound 101], the minimum inhibitory concentration (MIC) was above 8 µg/mL in the assay on E. coli BW25113; above 8 µg/mL in the assay on Edwardsiella tarda; 2 µg/mL (≈ 4.42 µM) with E. coli JW5503 (deltolC); above 8 µg/mL in the assay with E. coli MG1655; above 8 µg/mL in assay [1]; above 8 µg/mL in assay [2]. Further, the minimum inhibitory concentration (MIC) in the assay with Shigella flexneri is above 8 µg/mL; in [3], around 8 µg/mL (≈ 17.7 µM); in assay [4] it was 8 µg/mL (≈ 17.7 µM); in [5], above 8 µg/mL; against Streptococcus agalactiae it was above 8 µg/mL; in the assay with Streptococcus pyogenes, above 8 µg/mL.

With `O=S(=O)(N[C@@H]1CCN(Cc2ccc(-c3ccc(Cl)cc3)cc2)C1)c1cccc(C(F)(F)F)c1` [Compound 102], the MIC in the assay with E. coli BW25113 was above 8 µg/mL; in the assay on Edwardsiella tarda it was above 8 µg/mL; in the assay with E. coli JW5503 (deltolC), around 8 µg/mL (≈ 16.2 µM); in the assay with E. coli MG1655, above 8 µg/mL; in assay [1], above 8 µg/mL; in assay [2] it was above 8 µg/mL. The minimum inhibitory concentration (MIC) was above 8 µg/mL in the assay on Shigella flexneri; 8 µg/mL (≈ 16.2 µM) in [3]; 4 µg/mL (≈ 8.08 µM) in assay [4]; above 8 µg/mL in assay [5]; above 8 µg/mL in the assay with Streptococcus agalactiae; around 8 µg/mL (≈ 16.2 µM) against Streptococcus pyogenes.

On to `O=S(=O)(N[C@@H]1CCN(Cc2ccc(-c3ccc(Cl)cc3)cc2)C1)c1cccc(OC(F)(F)F)c1` [Compound 103], for which the minimum inhibitory concentration (MIC) with E. coli BW25113 is above 8 µg/mL; with Edwardsiella tarda it was above 8 µg/mL; against E. coli JW5503 (deltolC) it was around 8 µg/mL (≈ 15.7 µM); with E. coli MG1655 it was above 8 µg/mL; in assay [1], above 8 µg/mL; in [2], above 8 µg/mL. The minimum inhibitory concentration (MIC) with Shigella flexneri is above 8 µg/mL; in [3], 8 µg/mL (≈ 15.7 µM); in assay [4], 8 µg/mL (≈ 15.7 µM); in assay [5], above 8 µg/mL; in the assay with Streptococcus agalactiae, above 8 µg/mL; against Streptococcus pyogenes it was around 8 µg/mL (≈ 15.7 µM).

Consider `O=S(=O)(N[C@@H]1CCN(Cc2ccc(OC3CC3)cc2)C1)c1cccnc1` [Compound 104], for which the MIC (in the assay with E. coli BW25113; in the assay with Edwardsiella tarda; with E. coli JW5503 (deltolC); in the assay on E. coli MG1655; in assay [1]; in [2]) was above 8 µg/mL throughout. Also, the MIC (with Shigella flexneri; in assay [3]; in assay [4]; in assay [5]; with Streptococcus agalactiae; against Streptococcus pyogenes) was above 8 µg/mL each time.

For `O=S(=O)(N[C@@H]1CCN(Cc2ccc(-c3ccccc3)cc2)C1)c1cccc2cccnc12` [Compound 105], the MIC in the assay with E. coli BW25113 was above 8 µg/mL; against Edwardsiella tarda, above 8 µg/mL; in the assay with E. coli JW5503 (deltolC), 0.125 µg/mL (≈ 0.282 µM); in the assay on E. coli MG1655, above 8 µg/mL; in assay [1], above 8 µg/mL; in assay [2] it was 8 µg/mL (≈ 18 µM). Moreover, the MIC (against Shigella flexneri; in [3]; in assay [4]; in assay [5]; in the assay with Streptococcus agalactiae; in the assay with Streptococcus pyogenes) was above 8 µg/mL in each case.

For the compound `O=S(=O)(N[C@@H]1CCN(Cc2ccc(OC(F)F)cc2)C1)c1cccc(OC(F)(F)F)c1` [Compound 106], the MIC (with E. coli BW25113; against Edwardsiella tarda; in the assay with E. coli JW5503 (deltolC); in the assay with E. coli MG1655; in [1]; in [2]) was above 8 µg/mL in each case. In addition, the minimal inhibitory concentration (MIC) (against Shigella flexneri; in [3]; in assay [4]; in assay [5]; with Streptococcus agalactiae; against Streptococcus pyogenes) was above 8 µg/mL each time.

As to `O=S(=O)(N[C@@H]1CCN(Cc2nc(-c3ccccc3)cs2)C1)c1cccc(OC(F)(F)F)c1` [Compound 107], the minimum inhibitory concentration (MIC) (with E. coli BW25113; against Edwardsiella tarda; against E. coli JW5503 (deltolC); in the assay with E. coli MG1655; in assay [1]; in [2]) was above 8 µg/mL throughout. Also, the minimum inhibitory concentration (MIC) (with Shigella flexneri; in assay [3]; in [4]; in [5]; against Streptococcus agalactiae; against Streptococcus pyogenes) was above 8 µg/mL in each case.

Take `O=S(=O)(N[C@@H]1CCN(Cc2cn(-c3ccccc3)nn2)C1)c1cccc(C(F)(F)F)c1` [Compound 108]: the MIC (in the assay on E. coli BW25113; with Edwardsiella tarda; against E. coli JW5503 (deltolC); with E. coli MG1655; in assay [1]; in assay [2]) was above 8 µg/mL throughout. The MIC (against Shigella flexneri; in [3]; in assay [4]; in [5]; in the assay on Streptococcus agalactiae; in the assay on Streptococcus pyogenes) was above 8 µg/mL in each case.

Consider `N#Cc1cccc(S(=O)(=O)N[C@@H]2CCN(Cc3ccc(OC4CCC4)cc3)C2)c1` [Compound 109], for which the MIC is above 8 µg/mL with E. coli BW25113; above 8 µg/mL with Edwardsiella tarda; 0.5 µg/mL (≈ 1.21 µM) in the assay with E. coli JW5503 (deltolC); above 8 µg/mL in the assay with E. coli MG1655; above 8 µg/mL in assay [1]; 8 µg/mL (≈ 19.4 µM) in [2]. Further, the MIC (against Shigella flexneri; in assay [3]; in [4]; in assay [5]; in the assay on Streptococcus agalactiae; in the assay on Streptococcus pyogenes) was above 8 µg/mL in each case.

As for `O=S(=O)(N[C@@H]1CCN(Cc2ccc(-c3ccccc3)cc2)C1)c1cc(Cl)cc(C(F)(F)F)c1` [Compound 110], the minimum inhibitory concentration (MIC) (in the assay with E. coli BW25113; against Edwardsiella tarda; in the assay with E. coli JW5503 (deltolC); with E. coli MG1655; in [1]; in assay [2]) was above 8 µg/mL in each case. The minimal inhibitory concentration (MIC) in the assay with Shigella flexneri is above 8 µg/mL; in assay [3], above 8 µg/mL; in [4], 4 µg/mL (≈ 8.08 µM); in assay [5], above 8 µg/mL; against Streptococcus agalactiae, above 8 µg/mL; with Streptococcus pyogenes it was 8 µg/mL (≈ 16.2 µM).

Turning to `O=S(=O)(N[C@@H]1CCN(Cc2ccc(-c3ccccc3)cc2)C1)c1cnc2ccsc2c1` [Compound 111], the MIC (in the assay with E. coli BW25113; against Edwardsiella tarda; against E. coli JW5503 (deltolC); in the assay with E. coli MG1655; in assay [1]; in assay [2]) was above 8 µg/mL throughout. The MIC (against Shigella flexneri; in assay [3]; in assay [4]; in [5]; against Streptococcus agalactiae; with Streptococcus pyogenes) was above 8 µg/mL in each case.

Regarding `Cc1ccc(C#N)cc1S(=O)(=O)N[C@@H]1CCN(Cc2ccc(OC(C)C)cc2)C1` [Compound 112], the minimal inhibitory concentration (MIC) is above 8 µg/mL with E. coli BW25113; above 8 µg/mL against Edwardsiella tarda; 0.25 µg/mL (≈ 0.605 µM) against E. coli JW5503 (deltolC); above 8 µg/mL with E. coli MG1655; above 8 µg/mL in assay [1]; 4 µg/mL (≈ 9.67 µM) in [2]. For the same compound, the MIC (against Shigella flexneri; in assay [3]; in assay [4]; in [5]; against Streptococcus agalactiae; against Streptococcus pyogenes) was above 8 µg/mL each time.

As for `O=S(=O)(N[C@@H]1CCN(Cc2ccc(-c3ccccc3)cc2)C1)c1cc(C(F)(F)F)ccc1F` [Compound 114], the MIC is above 8 µg/mL in the assay on E. coli BW25113; above 8 µg/mL against Edwardsiella tarda; 1 µg/mL (≈ 2.09 µM) in the assay on E. coli JW5503 (deltolC); above 8 µg/mL in the assay with E. coli MG1655; above 8 µg/mL in assay [1]; 4 µg/mL (≈ 8.36 µM) in [2]. For the same compound, the minimum inhibitory concentration (MIC) in the assay on Shigella flexneri is above 8 µg/mL; in assay [3], above 8 µg/mL; in [4], around 8 µg/mL (≈ 16.7 µM); in assay [5], above 8 µg/mL; in the assay with Streptococcus agalactiae it was above 8 µg/mL; in the assay with Streptococcus pyogenes, around 8 µg/mL (≈ 16.7 µM).

`Cc1nn(C)c2ncc(S(=O)(=O)N[C@@H]3CCN(Cc4ccc(-c5ccccc5)cc4)C3)cc12` [Compound 115]: the minimum inhibitory concentration (MIC) (with E. coli BW25113; against Edwardsiella tarda; against E. coli JW5503 (deltolC); with E. coli MG1655; in assay [1]; in [2]) was above 8 µg/mL in each case. The MIC (in the assay on Shigella flexneri; in assay [3]; in [4]; in assay [5]; with Streptococcus agalactiae; against Streptococcus pyogenes) was above 8 µg/mL throughout.

Regarding `CC(C)Oc1c(Cl)cc(CN2CC[C@@H](NS(=O)(=O)c3cccc(C#N)c3)C2)cc1Cl` [Compound 116], the minimum inhibitory concentration (MIC) (with E. coli BW25113; against Edwardsiella tarda; in the assay on E. coli JW5503 (deltolC); with E. coli MG1655; in assay [1]; in assay [2]) was above 8 µg/mL each time. In addition, the MIC (against Shigella flexneri; in assay [3]; in [4]; in assay [5]; in the assay with Streptococcus agalactiae; in the assay with Streptococcus pyogenes) was above 8 µg/mL each time.

With `CC(C)Oc1c(Cl)cc(CN2CC[C@@H](NS(=O)(=O)c3cccc(OC(F)(F)F)c3)C2)cc1Cl` [Compound 117], the MIC (with E. coli BW25113; against Edwardsiella tarda; against E. coli JW5503 (deltolC); in the assay with E. coli MG1655; in [1]; in assay [2]) was above 8 µg/mL in each case. Also, the minimum inhibitory concentration (MIC) (against Shigella flexneri; in assay [3]; in [4]; in assay [5]; against Streptococcus agalactiae; against Streptococcus pyogenes) was above 8 µg/mL each time.
